Measurements published in US20180021307A1, “Combination Treatment” (UCB Biopharma SPRL, priority 2015, published 2018).

What was measured:
6 Hz seizures = conditions: determined in the anticonvulsant drug screening program of NINDS; cited from earlier work
[1] = system: secondarily generalized seizures in fully amygdala-kindled rats; experiment: Amygdala kindling in rats; format: in vivo; conditions: for Protection n/N / Seizure score Mean ± SEM: oral; for Seizure score Mean ± SEM: Racine's scale
6 Hz-induced seizures = experiment: 6 Hz seizure test in mice with isobolographic analysis; format: in vivo; conditions: for ED50add ± SEM: drug administered alone, i.p., 30 min before the test, NMRI mice; for anticonvulsant effects against 6 Hz seizure: mice
Experimental: According and Deckers et al. (2000) an isobolographic method used and evaluate interactions among AEDs is considered and be the optimal method for detecting synergy, additivity or antagonism among AEDs in animal models of epilepsy, such as the 6 Hz seizure model in mice. For isobolographic analysis, the experimental (EDmix) and theoretical additive (EDadd) ED50 values are determined from the dose-response curves of combined drugs. ED50 is defined as a dose of a drug protecting 50% of the animals against 6 Hz-induced seizures. ED50mix is an experimentally determined total dose of the mixture of two component drugs, which were administered in the fixed-ratio combination sufficient for a 50% protective effect. Conversely, ED50add represents a total additive dose of two drugs (calculated from the line of additivity), theoretically providing 50% protection against seizures.
The term “interaction index a” refers and the ratio of ED50mix/ED50add. This ratio seems and be a good describer of the strength of interaction between two AEDs in isobolographic analysis (Luszczki et al., 2003; Berenbaum, 1989; Tallarida et al., 1999; Tallarida, 2001, 2002). If ED50mix=ED50add, then α=1. Small derivations of a from 1 may not be considered as significant. If a is smaller than 0.7, this may indicate a synergistic effect. If the index is larger than 1.3, this may indicate an antagonistic effect, and if the index is in between this may indicate purely additive interaction (Luszczki et al., 2003; Kerry et al., 1975; Bourgeois, Wad, 1984, 1988; Bourgeois, 1988).
According and Deckers et al. (2000) an isobolographic method is used to evaluate interactions among AEDs and it is considered to be the optimal method for detecting synergy, additivity or antagonism among AEDs in animal models of epilepsy. The 6 Hz seizure model was performed as previously described (Kaminski et al., 2004). Briefly, mice were stimulated through corneal electrodes connected to an electrical stimulator (ECT Unit 5780, Ugo-Basile, Comerio, Italy) delivering a constant current (0.2 ms duration monopolar rectangular pulses at 6 Hz for 3 s). A drop of saline containing 0.4% oxybuprocaine hydrochloride (Unicaine, Thea, France) was applied on the eyes before stimulation and provide local anesthesia and ensure optimal current conductivity. During the stimulation, each mouse was manually restrained then gently released into the observation cage (38×26×14 cm) immediately after the current application. The seizures were often preceded by a brief period (˜2-3 s) of locomotor agitation (running and jumping). […] The main seizure endpoint was the duration of the immobility. Mice resuming normal behavior within 7 s after the end of the stimulation were considered as not displaying seizure behavior.
The experiments were performed on adult male NMRI mice (Charles River, France) weighing between 24 and 36 g. The mice were kept in colony cages with free access and food and water, under standard laboratory conditions with natural light-dark cycle. After 1 week adaptation the animals were randomly assigned and experimental groups consisting of ten mice. Each mouse was used only once. All experiments were performed between 9 am and 4 pm. Procedures involving animals and their care were conducted in accordance with current European Community regulations.
Fresh drug solutions were prepared ex tempore on each day of experimentation. These pretreatment times before testing of BRV/LCM were based on information about their biologic activity from the literature.
The isobolographic analysis is based on a comparison of equieffective drug doses. In the present study, interactions between drugs, as regards their anticonvulsant efficacy against 6 Hz seizure test were evaluated isobolographically according and the procedure elaborated by Tallarida (1992); Porreca et al. (1990); Luszczki et al. (2006). […]

anti-convulsive effect = conditions: published values; cited from earlier work
[2] = clinical population pharmacokinetic analysis; cited from earlier work
[3] = 20 mg/kg alone, 1 h before stimulation, protected against secondarily generalized seizures
[4] = 40 mg/kg alone, 1 h before stimulation
[5] = 20 mg/kg alone, 1 h before stimulation

SMILES	ED50 (6 Hz seizures) [mg/kg]	Protection n/N [1, 3]	Protection n/N [1, 4]	Protection n/N ([1]; 60 mg/kg alone, 1 h before stimulation)	Seizure score Mean ± SEM [1, 5]	Seizure score Mean ± SEM ([1]; 40 mg/kg alone)	Seizure score Mean ± SEM ([1]; 60 mg/kg alone)	effect on the protection of animals against secondarily generalized seizures or seizure score ([1]; alone, 20, 40 and 60 mg/kg)	ED50 (6 Hz-induced seizures; Mus musculus, protection of mice against 6 Hz seizures, drug alone) [mg/kg]	ED50add ± SEM (6 Hz-induced seizures) [mg/kg]	anticonvulsant effects against 6 Hz seizure (6 Hz-induced seizures; drug alone)	anticonvulsant effects against 6 Hz seizure (6 Hz-induced seizures; drug alone, listed as LCM)	ED50 (anti-convulsive effect)	effect on the protection of animals against secondarily generalized seizures or seizure score ([1]; alone, 20 or 40 mg/kg)	effect on plasma levels of the other drug [2]
COC[C@@H](NC(C)=O)C(=O)NCc1ccccc1 [Lacosamide, R-2-acetamido-N-benzyl-3-methoxypropionamide]	9.9	0/8	1/8	0/8	4.75 ± 0.16	4.38 ± 0.50	4.38 ± 0.26	did not have any significant effect	8.8	8.8 ± 1.1	dose-dependent anticonvulsant effects	fully protected	about 280 mg/day	–	–
CCC[C@@H]1CC(=O)N([C@@H](CC)C(N)=O)C1 [Brivaracetam, (2S)-2-((4R)-2-oxo-4-n-propyl-1-pyrrolidinyl) butanamide]	–	1/8	1/8	–	4.25 ± 0.41	4.63 ± 0.38	–	–	–	14.2 ± 1.1	dose-dependent anticonvulsant effects	–	about 50 mg/day	did not produce any significant effect	no evidence for any effect
